Laboratory results as given in the supplement of paper PMC10307832.

Tests used:
Test in all cases: relative viability (nuclei count vs DMSO), 5 days (fraction); higher = more cells survive
[1] = compound: CC1=C(C(=NN1)C)CC2=C(C3=C(S2)N(C(=O)N(C3=O)C)CC(C)C)C(=O)N4C[C@@H](CO4)O + CCNC(=O)c1noc(-c2cc(C(C)C)c(O)cc2O)c1-c1ccc(CN2CCOCC2)cc1 [Luminespib] (partner 0.01 µM)
In short: (§1)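 Relative viability is defined as nuclei in treated wells over nuclei in vehicle wells. Duplicate plates were run and medians reported. Lung cancer cell lines in 1536-well plates were dosed by pin tool one day after seeding, with one drug or with a fixed anchor-drug dose plus five library-drug doses (not always all listed) in √10 steps, and nuclei were counted after 5 days.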

IDH-C35 + Olaparib = compound: Cc1ccccc1C(C(=O)NC1CCCCC1)N(C(=O)Cn1ccnc1C)c1cccc(F)c1 [IDH-C35] + O=C(c1cc(Cc2n[nH]c(=O)c3ccccc23)ccc1F)N1CCN(C(=O)C2CC2)CC1 [Olaparib] (partner 8 µM)
In short: as §1

[2] = compound: CC1=C(C(=NN1)C)CC2=C(C3=C(S2)N(C(=O)N(C3=O)C)CC(C)C)C(=O)N4C[C@@H](CO4)O + CC(=O)Nc1cccc(-n2c(=O)n(C3CC3)c(=O)c3c(Nc4ccc(I)cc4F)n(C)c(=O)c(C)c32)c1 [Trametinib] (partner 0.02 µM)
In short: as §1

IDH-C35 + Pictilisib = compound: Cc1ccccc1C(C(=O)NC1CCCCC1)N(C(=O)Cn1ccnc1C)c1cccc(F)c1 [IDH-C35] + CS(=O)(=O)N1CCN(Cc2cc3nc(-c4cccc5[nH]ncc45)nc(N4CCOCC4)c3s2)CC1 [Pictilisib] (partner 1 µM)
In short: as §1

Cell Line	relative viability ([1]; first compound 0.0025 µM)	relative viability ([1]; first compound 0.007906 µM)	relative viability ([1]; first compound 0.025 µM)	relative viability ([1]; first compound 0.07906 µM)	relative viability ([1]; first compound 0.25 µM)	relative viability (IDH-C35 + Olaparib; first compound 0.08 µM)	relative viability (IDH-C35 + Olaparib; first compound 0.253 µM)	relative viability (IDH-C35 + Olaparib; first compound 0.8 µM)	relative viability (IDH-C35 + Olaparib; first compound 2.53 µM)	relative viability (IDH-C35 + Olaparib; first compound 8 µM)	relative viability ([2]; first compound 0.0025 µM)	relative viability ([2]; first compound 0.007906 µM)	relative viability ([2]; first compound 0.025 µM)	relative viability ([2]; first compound 0.07906 µM)	relative viability ([2]; first compound 0.25 µM)	relative viability (IDH-C35 + Pictilisib; first compound 0.08 µM)	relative viability (IDH-C35 + Pictilisib; first compound 0.253 µM)	relative viability (IDH-C35 + Pictilisib; first compound 0.8 µM)	relative viability (IDH-C35 + Pictilisib; first compound 2.53 µM)	relative viability (IDH-C35 + Pictilisib; first compound 8 µM)
NCI-H2228	0.145	0.161	0.207	0.111	0.144	0.601	0.781	0.61	0.71	0.516	0.788	0.584	0.578	0.662	0.577	0.328	0.296	0.421	0.486	0.457
NCI-H2347	0.563	0.371	0.447	0.362	0.246	0.577	0.628	0.609	0.522	0.554	0.269	0.313	0.301	0.274	0.265	0.627	0.603	0.813	0.788	0.899
NCI-H2405	0.778	0.849		0.706	0.684	0.85	0.858	0.825	0.98	0.884	0.689	0.627	0.618	0.673	0.692	0.487	0.363	0.377		0.52
NCI-H3122	0.088	0.101	0.0902	0.0646	0.11	0.583	0.537	0.587	0.623	0.665	0.226	0.305	0.254	0.187	0.229	0.628	0.572	0.592	0.611	0.598
PC-3 [JPC-3]	0.801	0.601	0.699	0.773	0.786	1.15	1.11	1.2	1.07	1.06	0.74	0.649	0.718	0.678	0.682	0.802	0.772	0.687	0.844	0.703
PC-14	0.119	0.179	0.286	0.276	0.196	0.251	0.271	0.222	0.292	0.237	0.795	0.839	0.784	0.917	0.929	0.712	0.685	0.641	0.575	0.642
RERF-LC-KJ	1.25	1.36	1.22	1.16	1.32	0.853	0.896	0.963	0.985	0.869	0.898	0.94	0.838	0.883	0.909	0.53	0.671	0.529	0.554	0.509
SK-LU-1	0.187	0.177	0.182	0.183	0.182	0.422	0.399	0.396	0.484	0.448	0.47	0.409	0.326	0.344	0.374	0.535	0.483	0.641	0.606	0.63
SK-MES-1	1.01	0.782	0.969	0.846	0.888	0.737	0.728	0.609	0.693	0.631	0.562	0.607	0.604	0.591	0.592	0.335	0.414	0.358	0.343	0.295
SW 1573	0.32	0.322	0.443	0.213	0.332	0.5	0.54	0.496	0.433	0.467	0.496	0.574	0.622	0.59	0.654	0.468	0.502	0.439	0.59	0.476
